According to PMC11061832, “Antiviral Rotenoids and Isoflavones Isolated from Millettiaoblata ssp. teitensis” (Journal of Natural Products, 2024):
Entries after “also recorded” stand apart in the source; their conditions may differ.

Legend:
RSV = RSV plaque reduction assay in HEp-2 cells; settings: for SI (CC50/IC50): CC50 HEp-2 / anti-RSV IC50; for IC50: human respiratory syncytial virus, HEp-2, 72 h, read-out: anti-RSV activity IC50
Description: (§1) The extracts and the isolated compounds were tested for antiviral activity against RSV by the viral plaque reduction assay in cultures of HEp-2 cells (Table 3, Supporting Information). A tetrazolium-based cytotoxicity assay on HEp-2 cells was also performed to exclude that the anti-RSV activity was a result of general cytotoxicity. The cytotoxicity assay was complemented by microscopy observation of the compound- and extract-treated cells to detect possible cytostatic activity, such as poor cell growth and/or altered cell shape that may affect antiviral activity. […] At this stage, it is difficult to assess whether the cytostatic activity of these specific compounds contributed to the protection of cells against virus infection, and accordingly the specificity of anti-RSV action of 9 and 13 requires further investigation. An attempt was made to address this issue by testing cytotoxic activities of the most promising compounds in human embryonic lung fibroblasts (HELFs), i.e., primary cells derived from lung interstitium.
Human adenocarcinoma cells of uterine cervix (HeLa) were grown in Eagle’s minimum essential medium supplemented with 5% fetal calf serum and antibiotics. HELFs were grown in Eagle’s minimum essential medium supplemented with 5% fetal calf serum, L-glutamine, and antibiotics. […] The RSV stock was prepared and stored as described previously by Lundin et al.[50]
The RSV plaque reduction assay was performed as described previously[27],[51] with some modifications. […] Following 15 min of incubation at 37 °C in a humidified atmosphere comprising 5% CO2 (incubator), the cells were inoculated with 50–100 plaque-forming units of RSV A2. After incubation of the virus–compound mixture with cells for 2.5 h in the CO2 incubator, the inoculum was removed and 750 μL of 1% methylcellulose solution in DMEM-M comprising the same concentration of test compound/extract was added and left for a further 3 days in the CO2 incubator. The cells were stained with a 1% solution of crystal violet, and the viral plaques were counted under a microscope.

in vitro = settings: human
Description: as §1
(§2) HEp-2 cells were cultivated in Dulbecco’s modified Eagle’s medium (DMEM) supplemented with 8% fetal calf serum and 292 μg/mL of L-glutamine. Human adenocarcinoma cells of uterine cervix (HeLa) were grown in Eagle’s minimum essential medium supplemented with 5% fetal calf serum and antibiotics. HELFs were grown in Eagle’s minimum essential medium supplemented with 5% fetal calf serum, L-glutamine, and antibiotics. The A2 strain of RSV (ATCC VR-1540) was used. The RSV stock was prepared and stored as described previously by Lundin et al.[50] In some experiments, strain HGP of HRV-2 (ATCC, VR-482) was used.
(§3) The tetrazolium-based cytotoxicity assay using a CellTiter 96 Aqueous One solution reagent (Promega) was performed for the test extracts and isolated compounds in HEp-2, HELFs, and HeLa cells as described previously.[50]
(§4) Figure S130. Cell viability in presence of the crude extracts of leaves and root heart of Milletia oblata ssp teitensis. The HEp-2 cells were incubated for 3 days at 37 °C with specific concentration of test extract. After addition of the tetrazolium (MTS)-based reagent the absorbance was recorded at 490 nm. The results are expressed as a percentage of absorbance developed in extract treated cells relative to DMSO treated controls. […]

HRV-2 = assay: Anti-HRV-2 tetrazolium-based cell protection assay in HeLa cells; design: species or system human rhinovirus 2 (strain HGP)
[1] = test system: human embryonic lung fibroblasts (HELFs); assay: Tetrazolium-based cytotoxicity assay in human embryonic lung fibroblasts; settings: primary lung fibroblasts
Description: as §1, §2, §3

[2] = as above; settings: human
Description: as §1, §2, §3

[3] = Tetrazolium-based cytotoxicity assay in HeLa cells; format: cell-based; settings: human, 34 °C
Description: Figure S133. Anti-HRV-2 (IC50) of 3 of Milletia oblata ssp teitensis in HeLa cells. In the cell protection against HRV assay, the cells were incubated in the presence of specific concentrations of test compound for 3 h, then inoculated with HRV and incubated for further 3 days at 34°C. Two separate experiments were performed, and the cell protection against HRV-2 was calculated according to formula described in the Method section. In the cell viability assay, the cells were incubated with test compound for 3 days at 34°C. For further explanations see legend to Figure S130.
Table S1. Anti-RSV activity, cytotoxicity for HEp-2 cells, and selectivity indices (SI) of Milletia oblata extracts. For explanations see legend to Table 3.
Compound/extract Anti-RSV activity Cytotoxicity SI […]
Root wood extract 3.4 66 PCS (8 µg/mL) 19.4
(1 picture or pasted object on this page, not shown here)

HEp-2 cells [4] = assay: Tetrazolium-based cytotoxicity assay in HEp-2 cells; settings: read-out: cytotoxicity CC50; HEp-2 cells, tetrazolium-based assay
Description: as §1, §2, §3, §4

HEp-2 cells [5] = assay: Microscopic recording of cytostatic activity in compound-treated HEp-2 cells; settings: microscopy, PCP poor cell proliferation, ACS altered cell shape, PCS poor cell staining, concentration(s) at which seen in brackets
Description: as §1

[6] = cytotoxicity CC50, HEp-2 cells, tetrazolium-based assay
[7] = HEp-2 cells, cytotoxicity CC50, HEp-2 cells, tetrazolium-based assay
[8] = human embryonic lung fibroblasts (HELFs), primary cells

Compound	SI (CC50/IC50) (RSV)	IC50 (RSV) [µM]	CC50 (in vitro; [6]) [µM]	CC50 at 3 days (in vitro; [7]) [µM]	cytotoxicity: cytostatic activity (HEp-2 cells [5])	also measured
COc1ccc2c(c1)O[C@@H]1COc3c(cc(OC)c4c3OCO4)[C@@H]1C2=O [Compound 1, (6aS,12aS)-2,9-dimethoxy-3,4-methylenedioxyrotenoid]	1.0	> 100	> 100	–	–	–
COc1cc2c(cc1OC)C(=O)[C@@]1(O)c3cc4c(cc3OC[C@H]1O2)OCO4 [Compound 2, (6aR,12aR)-9,10-dimethoxy-2,3-methylenedioxy-12a-hydroxyrotenoid]	1.0	> 100	> 100	–	–	–
COc1ccc2c(=O)c3c(oc2c1)COc1cc2c(cc1-3)OCO2 [Compound 3, 9-methoxy-2,3-methylenedioxy-6a-2a-dehydrorotenoid]	4.1	22	–	90	–	SI (HRV-2; CC50 HeLa / anti-HRV-2 IC50): 11.4; IC50 (HRV-2; Rhinovirus A, HRV2, 72 h, protection of HeLa cells against HRV-2 infection, 3 days, 34 °C): 4.2 µM; cytotoxicity (in words) [1]: low cytotoxicity; CC50 [2, 8]: > 100 µM; CC50 at 3 days [3]: 48 µM
COc1c(O[C@@H]2O[C@H](CO[C@H]3O[C@H](C)[C@@H](O)[C@H](O)[C@@H]3O)[C@@H](O[C@@H]3O[C@H](CO[C@H]4O[C@H](C)[C@@H](O)[C@H](O)[C@@H]4O)[C@@H](O)[C@H](O)[C@H]3O)[C@H](O)[C@H]2O)cc2c(=O)c(-c3ccc4c(c3)OCO4)coc2c1OC [Compound 4, isoplatycarpanetin-6-O-β-glucosyl-(7″→1‴′)-α-rhamnosyl-(4″→1‴)-β-glucosyl-(7‴→1‴′)-α-rhamnoside]	1.0	> 100	–	> 100	–	–
COc1ccc2c(c1)O[C@@H]1COc3cc4c(cc3[C@@H]1C2=O)OCO4 [Compound 5, oblarotenoid C]	>1.9	53	> 100	–	–	–
COc1ccc2c(c1)O[C@@H]1COc3cc4c(cc3[C@]1(O)C2=O)OCO4 [Compound 6, oblarotenoid A]	35.7	1.4	> 26.5	–	PCS (20.0 μM)	CC50 (HEp-2 cells [4]): 50 µM; CC50 [2]: 1.3 µM
COc1ccc2c(c1)O[C@@H]1COc3c(cc(OC)c4c3OCO4)[C@]1(O)C2=O [Compound 7, oblarotenoid D]	3.8	1.8	6.7	–	–	–
COc1ccc2c(c1)O[C@@H]1COc3cc(OC)c(OC)cc3[C@]1(O)C2=O [Compound 8, 12a-hydroxymunduserone]	28.0	1.5	> 26.5	–	PCS (20.0 μM)	CC50 (HEp-2 cells [4]): 42 µM; CC50 [2]: 4.8 µM
COc1cc2c(cc1OC)[C@]1(O)C(=O)c3ccc4c(c3O[C@@H]1CO2)C=CC(C)(C)O4 [Compound 9, tephrosin]	15.6	0.8	–	–	cytostatic activity at concentrations close to their IC50 values; also recorded: PCS (0.8 and 4.0 μM)	CC50 at 3 days (in vitro): 12.5 µM
COc1cc2c(cc1OC)[C@@H]1C(=O)c3ccc4c(c3O[C@@H]1CO2)C=CC(C)(C)O4 [Compound 10, deguelin]	–	0.4	> 26.5	–	PCS (4.0 μM)	CC50 (HEp-2 cells [4]): 26.5 µM; CC50 [2]: 0.3 µM
COc1cc2c(cc1-c1coc3c4c(c(OC)cc3c1=O)OC(C)(C)C=C4)OCO2 [Compound 11, ichthynone]	11.4	8	–	–	PCS (20.0 μM)	cytotoxicity (in words) [1]: low cytotoxicity; CC50 [2, 8]: > 100 µM
COc1ccc2c(=O)c(-c3cc(OC)c4c(c3OC)OCO4)coc2c1 [Compound 12, 7,2′,5′-trimethoxy-3′,4′-methylenedioxyisoflavone]	1.0	> 100	–	> 100	–	–
CC(C)=CCOc1ccc(-c2coc3c4c(ccc3c2=O)OC(C)(C)C=C4)cc1 [Compound 13, isoerythrin-A-4′-prenyl ether]	>47.6	2.1	–	> 100	cytostatic activity at concentrations close to their IC50 values; also recorded: PCS (4.0, 20.0, and 100.0 μM)	CC50 [2, 8]: 9 µM
CC(C)=CCOc1ccc(-c2coc3c4c(cc(O)c3c2=O)OC(C)(C)C=C4)cc1 [Compound 14, 4′-prenyloxyderrone]	>10	10	–	–	PCS (100.0 μM)	cytotoxicity (in words) [1]: low cytotoxicity; CC50 [2, 8]: > 100 µM
COc1ccc2c(=O)c(-c3cc4c(cc3OC)OCO4)coc2c1 [Compound 15, aglycuneatin methyl ether]	6.5	10	–	65	PCS (20.0 μM)	CC50 [2, 8]: 47.1 µM
CC1(C)C=Cc2c(ccc3c(=O)c(-c4ccc5c(c4)OCO5)coc23)O1 [Compound 16, calopogonium isoflavone B]	1.0	> 100	–	> 100	–	–
COc1cc2c(cc1-c1coc3cc(O)ccc3c1=O)OCO2 [Compound 17, maximaisoflavone G]	1.0	> 100	–	> 100	–	–
CC1(C)C=Cc2c(ccc(C(=O)/C=C/c3ccc(O)cc3)c2O)O1 [Compound 19, isobavachromene]	<2.5	> 0.8	–	2	–	–
NC(=O)c1ncn([C@@H]2O[C@H](CO)[C@@H](O)[C@H]2O)n1 [ribavirin, reference compound]	–	10.6	–	–	–	CC50 at 3 days (in vitro; cytotoxicity CC50): > 100 µM
